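48-hour exposure; five concentrations; linearly interpolated endpoints. GI50 = concentration required for 50% inhibition of growth.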 Calls of active or inactive are those of the source. Cut-off read from the data, not from the text of the source: active = GI50 up to about 1.1 µM and inactive = higher. Where a SMILES comes first, the peptide text is derived from it. Peptide text beside a SMILES is read from it. [ ]: non-standard residue; d: D form. The star is where a group is joined. ξ: configuration not given here. ξD = NC(CC(=O)O)C(=O)O; Ac3c = NC1(C(=O)O)CC1; Boc = CC(C)(C)OC(=O)*; OBn = c1ccc(CO*)cc1
Columns and labels:
Test in all cases: DTP human tumour cell line panel, 48 h
U-251 = system: U-251
Hs-578T = system: Hs-578T
SK-MEL-5 = system: SK-MEL-5
COLO 205 = system: COLO 205
RXF 393 = system: RXF 393
SK-MEL-28 = system: SK-MEL-28
A498 = system: A498
K562 = system: K562
HCT-116 = system: HCT-116
DU-145 = system: DU-145
NCI-H460 = system: NCI-H460
UACC-62 = system: UACC-62
T47D = system: T47D
HT-29 = system: HT-29
NCI-H226 = system: NCI-H226
MDA-MB-231 = system: MDA-MB-231
MDA-MB-435 = system: MDA-MB-435
TK-10 = system: TK-10
SK-MEL-2 = system: SK-MEL-2
OVCAR-4 = system: OVCAR-4

Measured: GI50

CC1(C)CC(Nc2ccc(Nc3ccccc3)cc2)CC(C)(C)N1
inactive: U-251 26.1 µM | Hs-578T 25.4 µM | SK-MEL-5 15.2 µM | COLO 205 16.8 µM | RXF 393 18 µM | SK-MEL-28 18.2 µM | A498 28.2 µM | K562 13.2 µM | HCT-116 35.6 µM | DU-145 23 µM | NCI-H460 27.9 µM | UACC-62 16.1 µM | T47D 16 µM | HT-29 21.3 µM | NCI-H226 17.1 µM | MDA-MB-231 14.9 µM | MDA-MB-435 16.8 µM | TK-10 32.8 µM | SK-MEL-2 23.8 µM | OVCAR-4 34.2 µM

CC(=O)CC1CCC(=O)/C=C/C(=O)OC(CC(C)=O)CCC(=O)/C=C/C(=O)O1 (stereo not given)
inactive: U-251 21.4 µM | Hs-578T 27.9 µM | SK-MEL-5 13.8 µM | COLO 205 1.77 µM | RXF 393 3.22 µM | SK-MEL-28 7.33 µM | A498 18.3 µM | K562 3.25 µM | HCT-116 4.1 µM | DU-145 19.6 µM | NCI-H460 18.5 µM | UACC-62 14.6 µM | T47D 2.09 µM | HT-29 11.2 µM | NCI-H226 33 µM | MDA-MB-231 5.09 µM | MDA-MB-435 17 µM | TK-10 7.35 µM | SK-MEL-2 6.61 µM | OVCAR-4 7.83 µM

C/C(=N/NC(N)=S)c1ccc[nH]1
inactive: U-251 > 100 µM | Hs-578T > 100 µM | SK-MEL-5 > 100 µM | COLO 205 > 100 µM | RXF 393 > 100 µM | SK-MEL-28 > 100 µM | A498 > 100 µM | K562 37.9 µM | HCT-116 > 100 µM | DU-145 > 100 µM | NCI-H460 > 100 µM | UACC-62 > 100 µM | T47D 84.3 µM | HT-29 > 100 µM | NCI-H226 > 100 µM | MDA-MB-231 > 100 µM | MDA-MB-435 > 100 µM | TK-10 > 100 µM | SK-MEL-2 > 100 µM | OVCAR-4 78.9 µM

CC(=O)NC(CS)C(=O)NC(CO)C(=O)NC(CO)C(=O)NC(Cc1c[nH]c2ccccc12)C(=O)N1CCCC1C(=O)NC(CO)C(=O)NC(Cc1c[nH]c2ccccc12)C(=O)NC(Cc1c[nH]cn1)C(=O)NC(CO)C(=O)NC(Cc1c[nH]c2ccccc12)C(=O)NCC(=O)NCC(=O)NC(C)C(=O)NC(CCC(N)=O)C(=O)NC(CCCCN)C(=O)NC(C)C(=O)NC(CCCNC(=N)N)C(=O)NC(CCCCN)C(N)=O (stereo not given) (Ac-CSSWPSWHSWGGAQKARK-NH2; configuration not given here)
inactive: U-251 13 µM | Hs-578T 29.2 µM | SK-MEL-5 11 µM | COLO 205 12.8 µM | RXF 393 10 µM | SK-MEL-28 11.1 µM | A498 > 50 µM | K562 10.3 µM | HCT-116 34 µM | DU-145 16.8 µM | NCI-H460 12.4 µM | UACC-62 10.9 µM | T47D 11 µM | HT-29 > 50 µM | NCI-H226 > 50 µM | MDA-MB-231 8.49 µM | MDA-MB-435 15.7 µM | TK-10 > 50 µM | SK-MEL-2 26.4 µM | OVCAR-4 > 50 µM

COC(=O)C1(NC(=O)C(CC(=O)OCc2ccccc2)NC(=O)OC(C)(C)C)CC1 (stereo not given) (Boc-[ξD](OBn)-[Ac3c]-OMe)
inactive: U-251 > 100 µM | Hs-578T > 100 µM | SK-MEL-5 > 100 µM | COLO 205 > 100 µM | RXF 393 > 100 µM | SK-MEL-28 > 100 µM | A498 > 100 µM | K562 > 100 µM | HCT-116 > 100 µM | DU-145 > 100 µM | NCI-H460 > 100 µM | UACC-62 1.58 µM | T47D > 100 µM | HT-29 > 100 µM | NCI-H226 > 100 µM | MDA-MB-231 > 100 µM | MDA-MB-435 > 100 µM | TK-10 > 100 µM | SK-MEL-2 > 100 µM | OVCAR-4 > 100 µM

CC(=O)NCCCCCCNC(C)=O [HEXAMETHYLENEBISACETAMIDE]
inactive: U-251 7830 µM | Hs-578T 5790 µM | SK-MEL-5 6700 µM | COLO 205 5380 µM | RXF 393 9860 µM | SK-MEL-28 6980 µM | A498 5790 µM | K562 5740 µM | HCT-116 8470 µM | DU-145 > 8830 µM | NCI-H460 4810 µM | UACC-62 4050 µM | T47D > 5680 µM | HT-29 4840 µM | NCI-H226 6810 µM | MDA-MB-231 4180 µM | MDA-MB-435 4010 µM | TK-10 4300 µM | SK-MEL-2 6590 µM | OVCAR-4 6550 µM

Reference: ChEMBL document CHEMBL1201862, “PubChem BioAssay data set” (2004)
